Experiments:
[1] = target: Kv11.1 (KCNH2, hERG) potassium channel (Homo sapiens, UniProt Q12809); assay: Allosteric modulation of [3H]-dofetilide binding at Kv11.1 channel (unknown origin) expressed in HEK293 cells at 10 uM after 6 mins by scintillation spectrometer analysis relative to control; type: cell-based; details: HEK293 cells expressing Kv11.1 channel, probe [3H]-dofetilide, read-out: Activity
[2] = target: T1, Voltage-gated inwardly rectifying potassium channel KCNH2 (Homo sapiens, UniProt Q12809); assay: Induction of dissociation of [3H]-dofetilide from Kv11.1 channel (unknown origin) assessed as dissociation rate expressed in HEK293 cells at 50 uM after 1 hr relative to control; type: cell-based; details: hek293, 1 h
[3] = target: T1, Voltage-gated inwardly rectifying potassium channel KCNH2; assay: Induction of dissociation of [3H]-dofetilide from Kv11.1 channel (unknown origin) assessed as dissociation rate expressed in HEK293 cells after 1 hr; type: cell-based
[4] = target: T1, Voltage-gated inwardly rectifying potassium channel KCNH2; assay: Allosteric modulation of Kv11.1 channel (unknown origin) expressed in HEK293 cells assessed as shift of inhibition constant for dofetilide-induced displacement of [3H]-dofetilide binding at 10 uM after 1 hr relative to control; type: cell-based; details: hek293, 1 h
[5] = target: T1, Voltage-gated inwardly rectifying potassium channel KCNH2; assay: Allosteric modulation of Kv11.1 channel (unknown origin) expressed in HEK293 cells assessed as shift of inhibition constant for astemizole-induced displacement of [3H]-dofetilide binding at 10 uM after 1 hr relative to control; type: cell-based; details: hek293, 1 h
[6] = target: T1, Voltage-gated inwardly rectifying potassium channel KCNH2; assay: Binding affinity to Kv11.1 channel (unknown origin)

Sequence of Kv11.1 (KCNH2, hERG) potassium channel (Q12809 whole entry): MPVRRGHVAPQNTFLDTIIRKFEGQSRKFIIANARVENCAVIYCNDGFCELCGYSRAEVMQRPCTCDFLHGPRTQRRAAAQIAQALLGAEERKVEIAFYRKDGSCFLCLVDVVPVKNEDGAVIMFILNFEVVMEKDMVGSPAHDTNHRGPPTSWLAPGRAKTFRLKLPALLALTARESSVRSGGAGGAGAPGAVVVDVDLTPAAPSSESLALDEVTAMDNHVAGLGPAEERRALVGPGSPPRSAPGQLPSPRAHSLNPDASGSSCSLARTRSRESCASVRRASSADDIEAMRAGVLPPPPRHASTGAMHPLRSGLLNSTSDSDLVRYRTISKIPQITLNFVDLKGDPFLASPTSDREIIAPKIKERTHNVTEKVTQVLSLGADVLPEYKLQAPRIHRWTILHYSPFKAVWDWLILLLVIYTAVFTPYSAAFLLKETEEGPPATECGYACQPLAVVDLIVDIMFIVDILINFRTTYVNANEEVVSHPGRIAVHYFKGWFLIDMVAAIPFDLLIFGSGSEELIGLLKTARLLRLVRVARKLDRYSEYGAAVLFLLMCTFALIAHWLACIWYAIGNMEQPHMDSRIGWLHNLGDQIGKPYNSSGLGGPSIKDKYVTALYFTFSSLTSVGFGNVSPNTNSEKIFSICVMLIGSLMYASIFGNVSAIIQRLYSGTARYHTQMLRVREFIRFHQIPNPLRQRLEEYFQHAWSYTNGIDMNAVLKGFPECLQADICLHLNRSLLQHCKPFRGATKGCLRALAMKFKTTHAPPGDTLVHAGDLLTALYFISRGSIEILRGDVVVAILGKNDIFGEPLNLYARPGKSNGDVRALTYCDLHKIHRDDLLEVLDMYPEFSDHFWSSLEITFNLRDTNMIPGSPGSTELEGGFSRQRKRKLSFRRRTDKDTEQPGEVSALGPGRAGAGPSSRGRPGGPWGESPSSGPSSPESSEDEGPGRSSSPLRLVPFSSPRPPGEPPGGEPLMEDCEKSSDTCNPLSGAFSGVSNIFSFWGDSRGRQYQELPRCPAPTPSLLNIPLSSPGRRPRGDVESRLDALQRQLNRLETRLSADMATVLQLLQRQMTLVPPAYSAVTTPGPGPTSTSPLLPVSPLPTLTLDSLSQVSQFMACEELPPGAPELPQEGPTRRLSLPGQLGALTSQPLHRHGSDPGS
T1 sequence (Q12809 whole entry): as above

For O=C(COc1ccc(C(=O)c2cccc(I)c2)cc1)Nc1cccnc1, which activity at 0.1 h, 10 µM [1] is on record?
Its activity at 0.1 h, 10 µM is 62%.

Which activity at 0.1 h, 10 µM [1] does the source give for O=C(COc1ccc(C(=O)c2ccccc2Br)cc1)Nc1cncnc1 here?
The activity at 0.1 h, 10 µM was 87%.

With O=C(COc1ccc(C(=O)c2ccccc2I)cc1)Nc1cccnc1 as the compound, how does the activity at 0.1 h, 10 µM [1] read?
Its activity at 0.1 h, 10 µM is 72%.

What does the source list for O=C(COc1ccc(C(=O)c2cc(F)ccc2Br)cc1)Nc1cccnc1?
fold change (FC) [2]: 4.1; EC50 [3]: 4.6 µM; fold change (FC) [4]: 4.6; fold change (FC) [5]: 6.3; activity at 0.1 h, 10 µM [1]: 38%

How did the activity at 0.1 h, 10 µM [1] turn out when O=C(COc1ccc(C(=O)c2ccc(Cl)cc2)cc1)Nc1cccnc1 was run?
The activity at 0.1 h, 10 µM was 104%.

O=C(COc1ccc(C(=O)c2ccccc2Br)cc1)Nc1cnc2ccccc2c1 was tested. Which activity at 0.1 h, 10 µM [1] did it give?
The activity at 0.1 h, 10 µM was 87%.

For O=C(COc1ccc(C(=O)c2ccccc2Br)cc1)Nc1ccc(Cl)nn1, which activity at 0.1 h, 10 µM [1] is on record?
Its activity at 0.1 h, 10 µM is 92%.

With O=C(COc1ccc(C(=O)c2ccccc2Br)cc1)Nc1cnccn1 as the compound, how does the activity at 0.1 h, 10 µM [1] read?
Its activity at 0.1 h, 10 µM is 92%.

With Cc1ccncc1NC(=O)COc1ccc(C(=O)c2ccccc2Br)cc1 as the compound, how does the activity at 0.1 h, 10 µM [1] read?
The activity at 0.1 h, 10 µM was 108%.

O=C(COc1ccc2ccccc2c1Br)Nc1cccnc1 was tested. Which Ki [6] did it give?
Its Ki is 0.0048 µM.

And the activity at 0.1 h, 10 µM [1]?
Its activity at 0.1 h, 10 µM is 66%.

Which activity at 0.1 h, 10 µM [1] does the source give for Cc1cncc(NC(=O)COc2ccc(C(=O)c3ccccc3Br)cc2)c1 here?
Its activity at 0.1 h, 10 µM is 121%.

Which results are given for O=C(COc1ccc(C(=O)c2ccccc2Br)cc1)Nc1cccnc1?
fold change (FC) [2]: 3; EC50 [3]: 12 µM; fold change (FC) [4]: 2.5; fold change (FC) [5]: 4.1; activity at 0.1 h, 10 µM [1]: 44%

With O=C(COc1ccc2c(c1)-c1ccccc1C2=O)Nc1cccnc1 as the compound, how does the activity at 0.1 h, 10 µM [1] read?
The activity at 0.1 h, 10 µM was 79%.

For O=C(COc1ccc(C(=O)c2ccccc2)c(Br)c1)Nc1cccnc1, which activity at 0.1 h, 10 µM [1] is on record?
Its activity at 0.1 h, 10 µM is 96%.

Which “fold change (FC)” value [2] does the source give for O=C(COc1ccc(C(=O)c2cccc(F)c2)cc1)Nc1cccnc1 here?
The value was 1.6.

What about the “fold change (FC)” value [4] of the same compound?
Its value is 1.9.

And the “fold change (FC)” value [5]?
The value was 1.9.

And the activity at 0.1 h, 10 µM [1]?
The activity at 0.1 h, 10 µM was 47%.

O=C(COc1ccc(C(=O)c2ccccc2F)cc1)Nc1cccnc1 was tested. Which activity at 0.1 h, 10 µM [1] did it give?
The activity at 0.1 h, 10 µM was 85%.

Which activity at 0.1 h, 10 µM [1] does the source give for COc1ccc(NC(=O)COc2ccc(C(=O)c3ccccc3Br)cc2)cn1 here?
Its activity at 0.1 h, 10 µM is 124%.

For COc1ccncc1NC(=O)COc1ccc(C(=O)c2ccccc2Br)cc1, which activity at 0.1 h, 10 µM [1] is on record?
The activity at 0.1 h, 10 µM was 105%.

Which activity at 0.1 h, 10 µM [1] does the source give for O=C(COc1ccc(C(=O)c2ccccc2Br)cc1)Nc1ccc(Cl)nc1 here?
Its activity at 0.1 h, 10 µM is 95%.

For O=C(COc1ccc(C(=O)c2ccccc2)cc1)Nc1cccnc1, which activity at 0.1 h, 10 µM [1] is on record?
The activity at 0.1 h, 10 µM was 78%.

How did the activity at 0.1 h, 10 µM [1] turn out when Cc1ccc(NC(=O)COc2ccc(C(=O)c3ccccc3Br)cc2)cn1 was run?
The activity at 0.1 h, 10 µM was 105%.

With O=C(COc1ccc(C(=O)c2cccc(Br)c2)cc1)Nc1cccnc1 as the compound, how does the “fold change (FC)” value [2] read?
Its value is 1.4.

And the “fold change (FC)” value [4]?
Its value is 1.4.

What about the “fold change (FC)” value [5] of the same compound?
The value was 1.4.

And the activity at 0.1 h, 10 µM [1]?
The activity at 0.1 h, 10 µM was 57%.

For O=C(COc1ccc(C(=O)c2ccc(F)cc2)cc1)Nc1cccnc1, which activity at 0.1 h, 10 µM [1] is on record?
Its activity at 0.1 h, 10 µM is 65%.

How did the activity at 0.1 h, 10 µM [1] turn out when O=C(COc1ccc(C(=O)c2ccccc2)cc1Br)Nc1cccnc1 was run?
Its activity at 0.1 h, 10 µM is 96%.

How did the activity at 0.1 h, 10 µM [1] turn out when COc1cncc(NC(=O)COc2ccc(C(=O)c3ccccc3Br)cc2)c1 was run?
The activity at 0.1 h, 10 µM was 107%.

Which activity at 0.1 h, 10 µM [1] does the source give for O=C(COc1ccc(C(=O)c2ccccc2Cl)cc1)Nc1cccnc1 here?
Its activity at 0.1 h, 10 µM is 71%.

O=C(COc1ccc(C(=O)c2cccc(F)c2Br)cc1)Nc1cccnc1 was tested. Which activity at 0.1 h, 10 µM [1] did it give?
The activity at 0.1 h, 10 µM was 85%.

Cc1ccc(C(=O)c2ccc(OCC(=O)Nc3cccnc3)cc2)cc1 was tested. Which activity at 0.1 h, 10 µM [1] did it give?
The activity at 0.1 h, 10 µM was 97%.

Which results are given for O=C(COc1ccc(C(=O)c2cccc(Cl)c2)cc1)Nc1cccnc1?
fold change (FC) [2]: 1.7; fold change (FC) [4]: 3.3; fold change (FC) [5]: 2.8; activity at 0.1 h, 10 µM [1]: 43%

Source: ChEMBL document CHEMBL3739265, “Synthesis and biological evaluation of negative allosteric modulators of the Kv11.1(hERG) channel” (Eur J Med Chem, 2015)
